Literature values as cited in PMC10840383, “Clinical features, functional consequences, and rescue pharmacology of missense GRID1 and GRID2 human variants” (Human Molecular Genetics, 2023).

Target: GluD2-A654T receptor
Parameters: method as in PMID 12606689
Conditions: read-out: Pentamidine IC50; cited from earlier work

N=C(N)c1ccc(OCCCCCOc2ccc(C(=N)N)cc2)cc1 [Pentamidine, pentamidine]
IC50: 11 µM
